pIC50: −log10 of the molar value. Positions of bridges follow the written chain, without caps; N, C: chain ends. Non-standard residues stand in square brackets, D forms with d. Residues, ends and D or L forms follow the SMILES beside them. ξ: configuration not given here. Bip = N[C@@H](Cc1ccc(-c2ccccc2)cc1)C(=O)O; NMeY = CN[C@@H](Cc1ccc(O)cc1)C(=O)O; NMeF = CN[C@@H](Cc1ccccc1)C(=O)O; ξY = NC(Cc1ccc(O)cc1)C(=O)O; AEEA = NCCOCCOCC(=O)O; ξL = CC(C)CC(N)C(=O)O; Sar = CNCC(=O)O
target: T1, human ROR1 (Homo sapiens, UniProt Q01973); experiment: ROR1 high content cell-based binding assay; conditions: read-out: ROR1 Binding 293T Human HC Cell Based Assay IC50
T1 construct: host or cells: HEK 293T cells, Tet-on system induced with doxycycline
Protocol: ROR1 high content cell-based binding assay: Human embryonic kidney 293T cells (293T) expressing human ROR1 with Tet-on system by doxycycline were used (Arctic-488134) for the assessment of inhibition of the binding of fluorescently-labeled competing peptide (“Probe”) that specifically binds to human ROR1. […] Cryopreserved vials were thawed in a 37° C. water bath. Cells were washed in assay culture media [DMEM (Life Technologies Inc. Cat. […] Cat. No. 15140-122) and […] dox] and diluted 1.0×10^5 cells/mL. Cells were seeded into PDL-coated 384 well plates (BD Falcon Cat. No. 356663) at 2,000 cells/20 μL. Plates were allowed to incubate for 10 minutes at room temperature and then transferred to a 37° C./5% CO2 incubator for overnight incubation. The next day, 125 nL of the test compound was added using an ECHO followed by the addition of 5 μL/well of 5-FAM-labeled probe to cells at a final concentration of 30 nM. Sample were incubated for 1 hour at 37° C. for 1 hour, followed by 3 washes in […] of dPBS. Cells were fixed by adding 8% (w/v) formaldehyde (Sigma Cat. No. 252549), 20 μg/mL Hoechst (Thermo Scientific Cat. No. 62249) in PBS for 20 minutes at room temperature. The plates were washed 3 more times in dPBS and 15 μl of PBS was left in the wells following the last wash. The plates were sealed, and data was using obtained using a CellInsight NXT High Content Screening Platform IC903000 (Thermo Scientific).

T1 sequence (Q01973 30-937): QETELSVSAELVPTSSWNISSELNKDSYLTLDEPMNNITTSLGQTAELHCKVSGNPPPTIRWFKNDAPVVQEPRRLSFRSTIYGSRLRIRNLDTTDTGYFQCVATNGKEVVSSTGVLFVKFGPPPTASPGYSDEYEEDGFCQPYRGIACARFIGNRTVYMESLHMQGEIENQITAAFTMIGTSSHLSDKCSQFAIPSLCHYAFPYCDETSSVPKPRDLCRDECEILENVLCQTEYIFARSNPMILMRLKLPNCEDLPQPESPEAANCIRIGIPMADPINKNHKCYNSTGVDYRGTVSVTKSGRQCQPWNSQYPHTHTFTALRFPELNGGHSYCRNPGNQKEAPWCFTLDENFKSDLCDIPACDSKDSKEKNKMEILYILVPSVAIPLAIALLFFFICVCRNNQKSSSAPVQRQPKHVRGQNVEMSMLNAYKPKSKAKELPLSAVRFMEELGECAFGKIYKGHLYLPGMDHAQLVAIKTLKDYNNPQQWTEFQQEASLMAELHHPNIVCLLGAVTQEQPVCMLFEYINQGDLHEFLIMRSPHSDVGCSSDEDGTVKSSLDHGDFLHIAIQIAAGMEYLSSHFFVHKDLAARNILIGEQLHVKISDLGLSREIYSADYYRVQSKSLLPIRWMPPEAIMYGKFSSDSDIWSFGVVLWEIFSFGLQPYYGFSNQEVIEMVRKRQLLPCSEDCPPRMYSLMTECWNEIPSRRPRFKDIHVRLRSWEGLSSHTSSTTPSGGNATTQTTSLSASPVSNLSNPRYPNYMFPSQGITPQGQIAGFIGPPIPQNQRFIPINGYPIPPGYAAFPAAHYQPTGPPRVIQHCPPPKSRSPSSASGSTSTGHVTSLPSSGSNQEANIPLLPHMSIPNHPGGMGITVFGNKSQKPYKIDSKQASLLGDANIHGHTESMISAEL

Going from `CC(C)CC1NC(=O)[C@H](Cc2ccc(O)cc2)NC(=O)[C@H](Cc2ccccc2)NC(=O)CSC[C@@H](C(=O)NCC(N)=O)NC(=O)[C@H](Cc2ccccc2)N(C)C(=O)[C@H](Cc2ccc(O)cc2)NC(=O)[C@H](Cc2c[nH]c3ccccc23)NC(=O)C(Cc2ccc(O)cc2)NC(=O)[C@H](C(C)C)NC1=O` (stereo partly shown) [Example 1113] ({CH2CO}-FY[ξL]V[ξY]WY[NMeF]CG-NH2; thioether N-9) to `CC(C)C[C@@H]1NC(=O)[C@H](Cc2ccc(O)cc2)NC(=O)[C@H](Cc2ccccc2)NC(=O)CSC[C@@H](C(=O)NCC(N)=O)NC(=O)[C@H](C)NC(=O)[C@H](Cc2ccccc2)N(C)C(=O)[C@H](Cc2ccc(O)cc2)NC(=O)[C@H](Cc2c[nH]c3ccccc23)NC(=O)CNC(=O)[C@H](CO)NC(=O)[C@H](Cc2ccc(O)cc2)NC(=O)[C@H](C(C)C)NC1=O` [Example 1042] ({CH2CO}-FYLVYSGWY[NMeF]ACG-NH2; thioether N-12), the pIC50 rises from 7.00 to 7.51 (0.51 log units).

Compared with `CC(C)C[C@@H]1NC(=O)[C@H](CCC(N)=O)NC(=O)[C@H](Cc2ccccc2)N(C)C(=O)CNC(=O)[C@H](Cc2ccc(O)cc2)NC(=O)[C@H](Cc2ccccc2)NC(=O)CSC[C@@H](C(N)=O)NC(=O)[C@H](Cc2c[nH]c3ccccc23)NC(=O)[C@H](Cc2ccc(O)cc2)NC1=O` [Example 1110] ({CH2CO}-FYG[NMeF]QLYWC-NH2; thioether N-9), `CC(C)C[C@@H]1NC(=O)[C@H](CC(N)=O)NC(=O)[C@H](Cc2ccccc2)N(C)C(=O)CNC(=O)[C@H](Cc2ccc(O)cc2)NC(=O)[C@H](Cc2ccccc2)NC(=O)CSC[C@@H](C(=O)NCC(N)=O)NC(=O)[C@H](Cc2c[nH]c3ccccc23)NC(=O)[C@H](Cc2ccc(O)cc2)NC1=O` [Example 1118] ({CH2CO}-FYG[NMeF]NLYWCG-NH2; thioether N-9) is 0.38 log units higher in pIC50: 6.44 for the first, 6.82 for the second. The second is the more potent here.

Compared with `CC(C)C[C@@H]1NC(=O)[C@H](Cc2ccc(O)cc2)NC(=O)[C@H](Cc2ccccc2)NC(=O)CSC[C@@H](C(=O)NCC(N)=O)NC(=O)[C@H](CC(C)C)NC(=O)[C@H](Cc2ccccc2)N(C)C(=O)[C@H](Cc2ccc(O)cc2)NC(=O)[C@H](Cc2c[nH]c3ccccc23)NC(=O)CNC(=O)[C@H](CCCNC(=N)N)NC(=O)[C@H](Cc2ccc(O)cc2)NC(=O)[C@H](C(C)C)NC1=O` [Example 1018] ({CH2CO}-FYLVYRGWY[NMeF]LCG-NH2; thioether N-12), `CC(C)C[C@@H]1NC(=O)[C@H](Cc2ccc(O)cc2)NC(=O)[C@H](Cc2ccccc2)NC(=O)CSC[C@@H](C(=O)NCC(N)=O)NC(=O)[C@H](CC(C)C)NC(=O)[C@H](Cc2ccccc2)N(C)C(=O)[C@H](Cc2ccc(O)cc2)NC(=O)[C@H](Cc2c[nH]c3ccccc23)NC(=O)CNC(=O)[C@H](CO)NC(=O)[C@H](Cc2ccc(O)cc2)NC(=O)[C@H](C)NC1=O` [Example 1041] ({CH2CO}-FYLAYSGWY[NMeF]LCG-NH2; thioether N-12) is 0.40 log units higher in pIC50: 7.52 for the first, 7.92 for the second.

First: CC(C)C[C@@H]1NC(=O)[C@H](CC(N)=O)NC(=O)[C@H](Cc2ccc(O)cc2)N(C)C(=O)CNC(=O)[C@H](Cc2ccc(O)cc2)NC(=O)[C@H](Cc2ccccc2)NC(=O)CSC[C@@H](C(N)=O)NC(=O)[C@H](Cc2c[nH]c3ccccc23)NC(=O)[C@H](Cc2ccc(O)cc2)NC1=O [Example 1123] ({CH2CO}-FYG[NMeY]NLYWC-NH2; thioether N-9)
Second: CC(C)C[C@@H]1NC(=O)[C@H](Cc2ccc(O)cc2)NC(=O)[C@H](CC(N)=O)NC(=O)CSC[C@@H](C(=O)NCC(N)=O)NC(=O)[C@H](CC(C)C)NC(=O)[C@H](Cc2ccccc2)N(C)C(=O)[C@H](Cc2ccc(O)cc2)NC(=O)[C@H](Cc2c[nH]c3ccccc23)NC(=O)CNC(=O)[C@H](CO)NC(=O)[C@H](Cc2ccc(O)cc2)NC(=O)[C@H](C(C)C)NC1=O [Example 1076] ({CH2CO}-NYLVYSGWY[NMeF]LCG-NH2; thioether N-12)
The pIC50 of the first is 0.61 log units higher: 6.90 for the first, 6.29 for the second. The first is the more potent here.

Compared with `CC(C)C[C@@H]1NC(=O)[C@H](Cc2c[nH]c3ccccc23)NC(=O)[C@H](Cc2ccccc2)NC(=O)[C@H](Cc2c[nH]c3ccccc23)NC(=O)CNC(=O)[C@H](CO)NC(=O)[C@H](Cc2ccc(O)cc2)NC(=O)[C@H](C(C)C)NC(=O)[C@H](CCCNC(=N)N)NC(=O)[C@H](Cc2ccccc2)NC(=O)[C@H](Cc2ccccc2)NC(=O)CSC[C@@H](C(N)=O)NC1=O` [Example 1014] ({CH2CO}-FFRVYSGWFWLC-NH2; thioether N-12), `CC(C)C[C@@H]1NC(=O)[C@H](Cc2ccccc2)NC(=O)CSC[C@@H](C(=O)NCC(N)=O)NC(=O)[C@H](C)NC(=O)[C@H](Cc2c[nH]c3ccccc23)NC(=O)[C@H](Cc2ccccc2)NC(=O)[C@H](Cc2c[nH]c3ccccc23)NC(=O)CNC(=O)[C@H](Cc2ccc(O)cc2)NC(=O)[C@H](CCCNC(=N)N)NC(=O)[C@H](C(C)C)NC(=O)[C@H](Cc2c[nH]c3ccccc23)NC1=O` [Example 1004] ({CH2CO}-FLWVRYGWFWACG-NH2; thioether N-12) is 0.85 log units higher in pIC50: 6.15 for the first, 7.00 for the second. The second is the more potent here.

`CC(C)[C@@H]1NC(=O)[C@H](Cc2c[nH]c3ccccc23)NC(=O)[C@H](Cc2ccc(O)cc2)NC(=O)[C@H](Cc2c[nH]c3ccccc23)NC(=O)CNC(=O)[C@H](Cc2c[nH]c3ccccc23)NC(=O)[C@H](CCCNC(=N)N)NC(=O)[C@H](C(C)C)NC(=O)[C@H](Cc2ccccc2)N(C)C(=O)[C@H](CCCNC(=N)N)NC(=O)[C@H](Cc2ccccc2)NC(=O)CSC[C@@H](C(=O)NCCOCCOCC(=O)O)NC1=O` [Example 1091] ({CH2CO}-FR[NMeF]VRWGWYWVC[AEEA]-OH; thioether N-12) and `CC(C)C[C@@H]1NC(=O)[C@H](Cc2ccc(O)cc2)NC(=O)[C@H](Cc2ccccc2)NC(=O)CSC[C@@H](C(=O)NCC(N)=O)NC(=O)[C@H](CC(C)C)NC(=O)[C@H](Cc2ccccc2)N(C)C(=O)[C@H](Cc2ccc(O)cc2)NC(=O)[C@H](Cc2c[nH]c3ccccc23)NC(=O)CNC(=O)CNC(=O)[C@H](CCCNC(=N)N)NC(=O)[C@H](C(C)C)NC1=O` [Example 1032] ({CH2CO}-FYLVRGGWY[NMeF]LCG-NH2; thioether N-12) are within 0.2 log units of each other in pIC50: 6.25 for the first, 6.41 for the second.

Compared with `CC(C)C[C@@H]1NC(=O)[C@H](Cc2ccccc2)NC(=O)CSC[C@@H](C(N)=O)NC(=O)[C@H](C(C)C)NC(=O)[C@H](Cc2ccccc2)N(C)C(=O)[C@H](CC(C)C)NC(=O)[C@H](Cc2c[nH]c3ccccc23)NC(=O)CN(C)C(=O)CNC(=O)[C@H](C(C)C)NC(=O)[C@H](Cc2c[nH]c3ccccc23)NC1=O` [Example 1202] ({CH2CO}-FLWVG[Sar]WL[NMeF]VC-NH2; thioether N-11), `CC(C)C[C@@H]1NC(=O)[C@H](Cc2ccccc2)NC(=O)CSC[C@@H](C(N)=O)NC(=O)[C@H](C(C)C)NC(=O)[C@H](Cc2ccccc2)N(C)C(=O)[C@H](CC(C)C)NC(=O)[C@H](Cc2c[nH]c3ccccc23)NC(=O)CN(C)C(=O)CNC(=O)[C@H](C(C)C)NC(=O)[C@H](Cc2ccc(-c3ccccc3)cc2)NC1=O` [Example 1204] ({CH2CO}-FL[Bip]VG[Sar]WL[NMeF]VC-NH2; thioether N-11) is 0.53 log units lower in pIC50: 7.17 for the first, 6.64 for the second. The first is the more potent here.

First: CC(C)C[C@@H]1NC(=O)[C@H](C)NC(=O)[C@H](Cc2ccccc2)NC(=O)CSC[C@@H](C(=O)NCC(N)=O)NC(=O)[C@H](CC(C)C)NC(=O)[C@H](Cc2ccccc2)N(C)C(=O)[C@H](Cc2ccc(O)cc2)NC(=O)[C@H](Cc2c[nH]c3ccccc23)NC(=O)CNC(=O)[C@H](CO)NC(=O)[C@H](Cc2ccc(O)cc2)NC(=O)[C@H](C(C)C)NC1=O [Example 1038] ({CH2CO}-FALVYSGWY[NMeF]LCG-NH2; thioether N-12)
Second: CC(C)C[C@@H]1NC(=O)[C@H](Cc2ccc(O)cc2)NC(=O)[C@H](Cc2ccccc2)NC(=O)CSC[C@@H](C(=O)NCC(N)=O)NC(=O)[C@H](CC(C)C)NC(=O)[C@H](Cc2ccccc2)N(C)C(=O)[C@H](Cc2ccc(O)cc2)NC(=O)[C@H](Cc2c[nH]c3ccccc23)NC(=O)CNC(=O)[C@H](CO)NC(=O)[C@H](C(C)C)NC(=O)[C@H](C(C)C)NC1=O [Example 1034] ({CH2CO}-FYLVVSGWY[NMeF]LCG-NH2; thioether N-12)
The pIC50 of the first is 1.03 log units higher: 7.64 for the first, 6.61 for the second.

First: CC(C)C[C@@H]1NC(=O)[C@H](Cc2ccc(O)cc2)NC(=O)[C@H](Cc2ccccc2)NC(=O)CSC[C@@H](C(N)=O)NC(=O)[C@H](CC(C)C)NC(=O)[C@H](Cc2ccccc2)N(C)C(=O)[C@H](Cc2ccc(O)cc2)NC(=O)[C@H](Cc2c[nH]c3ccccc23)NC(=O)CNC(=O)[C@H](CO)NC(=O)[C@H](Cc2ccc(O)cc2)NC(=O)[C@H](C(C)C)NC1=O [Example 1036] ({CH2CO}-FYLVYSGWY[NMeF]LC-NH2; thioether N-12)
Second: CC(C)C[C@@H]1NC(=O)[C@H](Cc2ccc(O)cc2)NC(=O)[C@H](Cc2ccccc2)NC(=O)CSC[C@@H](C(=O)NCC(N)=O)NC(=O)[C@H](CC(C)C)NC(=O)[C@H](Cc2ccccc2)N(C)C(=O)[C@H](Cc2ccc(O)cc2)NC(=O)[C@H](Cc2c[nH]c3ccccc23)NC(=O)CNC(=O)[C@H](CO)NC(=O)[C@H](CO)NC(=O)[C@H](C(C)C)NC1=O [Example 1026] ({CH2CO}-FYLVSSGWY[NMeF]LCG-NH2; thioether N-12)
The pIC50 of the first is 0.92 log units higher: 8.15 for the first, 7.23 for the second. The first is the more potent here.

`CC(C)C[C@@H]1NC(=O)[C@H](Cc2ccccc2)NC(=O)CSC[C@@H](C(N)=O)NC(=O)[C@H](C(C)C)NC(=O)[C@H](Cc2ccccc2)N(C)C(=O)[C@H](CC(C)C)NC(=O)[C@H](Cc2c[nH]c3ccccc23)NC(=O)CN(C)C(=O)CNC(=O)[C@H](C(C)C)NC(=O)[C@H](Cc2c[nH]c3ccccc23)NC1=O` [Example 1203] ({CH2CO}-FLWVG[Sar]WL[NMeF]VC-NH2; thioether N-11) was tested, and the pIC50 was 7.07.
